The term MIC denotes the smallest concentration in the dilution series that meets the test's criterion for growth inhibition. A higher MIC goes with weaker potency.

≈ marks a conversion by molar mass, not a printed value. A value given as a limit tells only on which side of the number the result lay.

One assay has as its system Vibrio cholerae. The assay is described as follows: Antibacterial activity against Vibrio cholerae after 16 to 18 hrs by micro-dilution method. The assay is classed as functional. On the technique in general: Broth dilution looks for growth in wells or tubes with falling amounts of substance.
A further assay deals with Shigella boydii. The assay is described as follows: Antibacterial activity against Shigella boydii after 16 to 18 hrs by micro-dilution method. The assay is classed as functional.
The subject of a further assay is Morganella morganii. The assay is described as follows: Antibacterial activity against Morganella morganii after 16 to 18 hrs by micro-dilution method. The assay is classed as functional.
A further assay relates to Acinetobacter baumannii. Briefly: Antibacterial activity against Acinetobacter baumannii after 16 to 18 hrs by micro-dilution method. The assay is classed as functional.
The test system of another assay is Klebsiella aerogenes. The assay is described as follows: Antibacterial activity against Enterobacter aerogenes after 16 to 18 hrs by micro-dilution method. The assay is classed as functional.
Another assay relates to Bacillus subtilis. Briefly: Antibacterial activity against Bacillus subtilis 168 after 16 to 18 hrs by micro-dilution method. To be noted: subsp. subtilis str. 168. The assay is classed as functional.
The test system of the next assay is Salmonella typhimurium. The assay is described as follows: Antibacterial activity against Salmonella typhimurium after 16 to 18 hrs by micro-dilution method. The assay is classed as functional, Salmonella enterica subsp. enterica serovar Typhimurium. The note with it: Salmonella enterica.
Another assay concerns Pseudomonas aeruginosa. The assay is described as follows: Antibacterial activity against Pseudomonas aeruginosa after 16 to 18 hrs by micro-dilution method. The assay is classed as functional.
A further assay relates to Klebsiella pneumoniae. Briefly: Antibacterial activity against Klebsiella pneumoniae after 16 to 18 hrs by micro-dilution method. The assay is classed as functional.
For the next assay, the system named is Staphylococcus aureus. Briefly: Antibacterial activity against Staphylococcus aureus after 16 to 18 hrs by micro-dilution method. The assay is classed as functional.
Assay [1] has as its system Escherichia coli. The assay is described as follows: Antibacterial activity against Escherichia coli BW25113 after 16 to 18 hrs by micro-dilution method. The assay is classed as functional.
For assay [2], the system named is Escherichia coli. The assay is described as follows: Antibacterial activity against tolC-deficient Escherichia coli BW25113 after 16 to 18 hrs by micro-dilution method. The assay is classed as functional.
Another assay relates to Edwardsiella tarda. The assay is described as follows: Antibacterial activity against Edwardsiella tarda after 16 to 18 hrs by micro-dilution method. The assay is classed as functional.
Assay [3] deals with Escherichia coli. The assay is described as follows: Induction of membrane permeabilization in Escherichia coli BW25113 at MIC after 15 mins by propidium iodide staining-based fluorescence microplate reader method relative to 50% ethanol. The assay is classed as functional.

With `Cl.NCCc1c[nH]c2ccc(OCCCCCCCc3ccccc3)cc12`, the MIC with Vibrio cholerae is 7 µg/mL; in the assay on Shigella boydii it was 7 µg/mL; in the assay on Morganella morganii, greater than 112 µg/mL; in the assay with Acinetobacter baumannii it was 7 µg/mL; against Klebsiella aerogenes, 14 µg/mL; with Bacillus subtilis it was 1.8 µg/mL. In addition, the MIC in the assay on Salmonella typhimurium stood at 7 µg/mL; against Pseudomonas aeruginosa, 56 µg/mL; against Klebsiella pneumoniae, 7 µg/mL; against Staphylococcus aureus, 3.5 µg/mL; against Escherichia coli [1], 14 µg/mL; in the assay with Escherichia coli [2] it was 1.8 µg/mL. This compound registered a minimal inhibitory concentration (MIC) with Edwardsiella tarda of 28 µg/mL.

As for `CCCCCCCCCOc1cccc(N)c1`, the MIC against Vibrio cholerae was greater than 80 µg/mL; in the assay with Shigella boydii, greater than 80 µg/mL; against Morganella morganii it was greater than 80 µg/mL; in the assay on Acinetobacter baumannii, greater than 80 µg/mL; in the assay on Klebsiella aerogenes it was greater than 80 µg/mL; in the assay on Bacillus subtilis, 40 µg/mL (≈ 170 µM). Moreover, the minimum inhibitory concentration (MIC) was greater than 80 µg/mL against Salmonella typhimurium; greater than 80 µg/mL against Pseudomonas aeruginosa; greater than 80 µg/mL against Klebsiella pneumoniae; greater than 80 µg/mL against Staphylococcus aureus; greater than 40 µg/mL against Escherichia coli [1]; 10 µg/mL (≈ 42.5 µM) in the assay with Escherichia coli [2]. Besides, in the assay on Edwardsiella tarda, the MIC is greater than 80 µg/mL.

On to `COc1ccc2c(CCN)c[nH]c2c1`, for which the MIC against Acinetobacter baumannii, with Bacillus subtilis, with Staphylococcus aureus, against Escherichia coli [1] and against Escherichia coli [2] was greater than 60.8 µg/mL throughout.

Regarding `CCCCCCCCCOc1ccc(CCN)cc1`, the MIC with Vibrio cholerae was 5.3 µg/mL (≈ 20.1 µM); in the assay with Shigella boydii, 5.3 µg/mL (≈ 20.1 µM); with Morganella morganii, greater than 84 µg/mL; in the assay on Acinetobacter baumannii it was 5.3 µg/mL (≈ 20.1 µM); in the assay on Klebsiella aerogenes it was 11 µg/mL (≈ 41.8 µM); with Bacillus subtilis, 0.66 µg/mL (≈ 2.51 µM). The minimum inhibitory concentration (MIC) was 5.3 µg/mL (≈ 20.1 µM) against Salmonella typhimurium; greater than 84 µg/mL with Pseudomonas aeruginosa; 5.3 µg/mL (≈ 20.1 µM) against Klebsiella pneumoniae; 2.6 µg/mL (≈ 9.87 µM) in the assay on Staphylococcus aureus; 5.3 µg/mL (≈ 20.1 µM) in the assay on Escherichia coli [1]; 1.3 µg/mL (≈ 4.93 µM) in the assay on Escherichia coli [2]. Further, the MIC against Edwardsiella tarda is greater than 84 µg/mL.

For `COc1ccc2[nH]cc(CCN)c2c1` [5-METHOXYTRYPTAMINE], the MIC in the assay with Acinetobacter baumannii, in the assay with Bacillus subtilis, against Staphylococcus aureus, in the assay on Escherichia coli [1] and with Escherichia coli [2] was greater than 60.8 µg/mL throughout.

For the compound `NCCc1c[nH]c2ccccc12` [TRYPTAMINE], the MIC in the assay with Acinetobacter baumannii, with Bacillus subtilis, in the assay on Staphylococcus aureus, in the assay with Escherichia coli [1] and with Escherichia coli [2] was greater than 51 µg/mL in each case.

As for `CCCCCCCCCOc1cccc(CN)c1`, the MIC against Vibrio cholerae was found to be 4.7 µg/mL (≈ 18.8 µM); against Shigella boydii, 9.4 µg/mL (≈ 37.7 µM); against Morganella morganii it was 38 µg/mL (≈ 152 µM); against Acinetobacter baumannii, 9.4 µg/mL (≈ 37.7 µM); against Klebsiella aerogenes, 9.4 µg/mL (≈ 37.7 µM); against Bacillus subtilis it was 4.7 µg/mL (≈ 18.8 µM). The minimum inhibitory concentration (MIC) was 4.7 µg/mL (≈ 18.8 µM) against Salmonella typhimurium; greater than 75 µg/mL in the assay with Pseudomonas aeruginosa; 9.4 µg/mL (≈ 37.7 µM) in the assay with Klebsiella pneumoniae; 9.4 µg/mL (≈ 37.7 µM) in the assay on Staphylococcus aureus; 9.4 µg/mL (≈ 37.7 µM) against Escherichia coli [1]; 4.7 µg/mL (≈ 18.8 µM) in the assay with Escherichia coli [2]. The compound further displayed a minimum inhibitory concentration (MIC) with Edwardsiella tarda of 19 µg/mL (≈ 76.2 µM).

For `CC(C)CCCC(C)CCOc1ccc2[nH]cc(CCN)c2c1.Cl` (stereo unspecified), the MIC is 6.3 µg/mL in the assay with Vibrio cholerae; 6.3 µg/mL in the assay with Shigella boydii; greater than 101 µg/mL in the assay with Morganella morganii; 13 µg/mL in the assay with Acinetobacter baumannii; 13 µg/mL in the assay on Klebsiella aerogenes; 1.6 µg/mL in the assay on Bacillus subtilis. Further, the MIC against Salmonella typhimurium was determined as 6.3 µg/mL; in the assay on Pseudomonas aeruginosa, 25 µg/mL; in the assay on Klebsiella pneumoniae, 13 µg/mL; in the assay on Staphylococcus aureus it was 6.3 µg/mL; with Escherichia coli [1] it was 13 µg/mL; against Escherichia coli [2], 3.2 µg/mL. Besides, in the assay on Edwardsiella tarda, inhibition of growth (MIC) required 25 µg/mL.

As to `CCCCCCCCCCCCCCCOc1ccc2[nH]cc(CCN)c2c1.Cl`, the minimal inhibitory concentration (MIC) against Vibrio cholerae, in the assay with Shigella boydii, against Morganella morganii, with Acinetobacter baumannii, against Klebsiella aerogenes and in the assay on Bacillus subtilis was greater than 124 µg/mL in each case. In addition, the minimal inhibitory concentration (MIC) in the assay with Salmonella typhimurium, with Pseudomonas aeruginosa, in the assay on Klebsiella pneumoniae, against Staphylococcus aureus, in the assay with Escherichia coli [1] and in the assay with Escherichia coli [2] was greater than 124 µg/mL each time. For the same compound, in the assay on Edwardsiella tarda, the MIC was greater than 124 µg/mL. In addition, the Activity in the assay with Escherichia coli [3] is 13%.

For the compound `CCCCCCCCCOc1ccc2[nH]cc(CC[N+](C)(C)C)c2c1`, the MIC in the assay on Vibrio cholerae was greater than 104 µg/mL; in the assay on Shigella boydii, 26 µg/mL; with Morganella morganii, greater than 104 µg/mL; against Acinetobacter baumannii, 52 µg/mL; in the assay with Klebsiella aerogenes it was 52 µg/mL; in the assay on Bacillus subtilis it was 52 µg/mL. Also, the MIC in the assay with Salmonella typhimurium is 26 µg/mL; against Pseudomonas aeruginosa, 52 µg/mL; in the assay on Klebsiella pneumoniae, 26 µg/mL; against Staphylococcus aureus, 6.5 µg/mL; against Escherichia coli [1] it was 52 µg/mL; in the assay with Escherichia coli [2] it was 6.5 µg/mL. In the assay on Edwardsiella tarda, this compound had a minimum inhibitory concentration (MIC) of 26 µg/mL.

As for `Cc1[nH]c2ccc(O)cc2c1CCN`, the minimal inhibitory concentration (MIC) with Acinetobacter baumannii, in the assay on Bacillus subtilis, in the assay with Staphylococcus aureus, with Escherichia coli [1] and in the assay with Escherichia coli [2] was greater than 60.8 µg/mL throughout.

Take `CCCCCCCCCCCCCCOc1ccc2[nH]cc(CCN)c2c1.Cl`: the MIC was greater than 119 µg/mL in the assay on Vibrio cholerae; greater than 119 µg/mL with Shigella boydii; greater than 119 µg/mL against Morganella morganii; greater than 119 µg/mL in the assay on Acinetobacter baumannii; greater than 119 µg/mL against Klebsiella aerogenes; 15 µg/mL in the assay on Bacillus subtilis. Also, the MIC was greater than 119 µg/mL in the assay with Salmonella typhimurium; greater than 119 µg/mL in the assay with Pseudomonas aeruginosa; greater than 119 µg/mL in the assay with Klebsiella pneumoniae; 3.4 to 30 µg/mL in the assay with Staphylococcus aureus; greater than 119 µg/mL in the assay on Escherichia coli [1]; greater than 119 µg/mL with Escherichia coli [2]. The minimum inhibitory concentration (MIC) in the assay with Edwardsiella tarda was greater than 119 µg/mL. In the assay on Escherichia coli [3], this compound showed an Activity of 11%.

As for `CCCCOc1ccc2[nH]cc(CCN)c2c1.Cl`, the MIC is greater than 74 µg/mL in the assay on Vibrio cholerae; greater than 74 µg/mL in the assay on Shigella boydii; greater than 74 µg/mL against Morganella morganii; greater than 74.3 µg/mL with Acinetobacter baumannii; greater than 74 µg/mL in the assay on Klebsiella aerogenes; greater than 74.3 µg/mL in the assay with Bacillus subtilis. For the same compound, the MIC in the assay on Salmonella typhimurium is greater than 74 µg/mL; against Pseudomonas aeruginosa, greater than 74 µg/mL; in the assay with Klebsiella pneumoniae it was greater than 74 µg/mL; against Staphylococcus aureus it was greater than 74.3 µg/mL; in the assay with Escherichia coli [1], greater than 74.3 µg/mL; with Escherichia coli [2] it was greater than 74.3 µg/mL. This compound also yielded an MIC with Edwardsiella tarda greater than 74 µg/mL. Besides, in the assay on Escherichia coli [3], the Activity was 3%.

For the compound `CCCCCCCCCOc1ccc2[nH]cc(CCNC(=O)OC(C)(C)C)c2c1`, the MIC with Vibrio cholerae, against Shigella boydii, in the assay on Morganella morganii, in the assay on Acinetobacter baumannii, in the assay with Klebsiella aerogenes and in the assay on Bacillus subtilis was greater than 130 µg/mL in each case. Further, the MIC in the assay with Salmonella typhimurium, with Pseudomonas aeruginosa, with Klebsiella pneumoniae, against Staphylococcus aureus, with Escherichia coli [1] and with Escherichia coli [2] was greater than 130 µg/mL each time. In addition, in the assay on Edwardsiella tarda, the minimum inhibitory concentration (MIC) was greater than 130 µg/mL.

For the compound `CCCCCCCCCOc1ccc2[nH]ccc2c1`, the minimal inhibitory concentration (MIC) against Vibrio cholerae, with Shigella boydii, with Morganella morganii, in the assay on Acinetobacter baumannii, with Klebsiella aerogenes and against Bacillus subtilis was greater than 83 µg/mL throughout. For the same compound, the MIC with Salmonella typhimurium, against Pseudomonas aeruginosa, against Klebsiella pneumoniae, against Staphylococcus aureus, with Escherichia coli [1] and against Escherichia coli [2] was greater than 83 µg/mL each time. This compound displayed a minimal inhibitory concentration (MIC) with Edwardsiella tarda greater than 83 µg/mL.

Consider `NCCc1c[nH]c2ccc(O)cc12` [SEROTONIN], for which the MIC in the assay with Acinetobacter baumannii, against Bacillus subtilis, with Staphylococcus aureus, with Escherichia coli [1] and against Escherichia coli [2] was greater than 56.4 µg/mL each time.

Values taken from ChEMBL document CHEMBL3864146, “5-Alkyloxytryptamines are membrane-targeting, broad-spectrum antibiotics” (Bioorg Med Chem Lett, 2016).
